According to patent US9073876B2, “Flap modulators” (JANSSEN PHARMACEUTICA NV, priority 2013, dated 2015):
Structures can show the parent of a compound that is named as a salt.

Target: human FLAP (Homo sapiens (Human), UniProt P20292)
Experiment: FLAP binding assay (HTRF)
Details: human FLAP-containing membranes, HTRF format; average of two assay plates, duplicates; read-out: FLAP Binding wild type HTRF Ki
Procedure: The ability of the compounds of the present invention to treat a FLAP-mediated disease and/or disorder, or associated symptoms or complications thereof, was determined using the following procedures. Binding assay data represent the average value obtained from two different assay plates, with samples run in duplicate on each plate. Human whole blood assay data represent a single replicate on an assay plate using whole blood from at least one healthy donor.
Data are expressed as a HTRF ratio.

Chain of human FLAP (P20292 whole entry): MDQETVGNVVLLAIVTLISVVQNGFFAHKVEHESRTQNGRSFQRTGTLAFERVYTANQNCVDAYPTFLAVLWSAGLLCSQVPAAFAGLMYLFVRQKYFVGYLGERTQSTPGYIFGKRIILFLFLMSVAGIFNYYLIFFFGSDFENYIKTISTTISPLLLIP

SMILES	Ki
COc1c(C2CCC2)ccc(-c2cnc3[nH]cnc3n2)c1F [Example 182, 5-(4-cyclobutyl-2-fluoro-3-methoxyphenyl)-1H-imidazo[4,5-b]pyrazine]	1940 nM
COc1c(Br)ccc(-c2cnc(N)cn2)c1F [Example 210, 5-(4-bromo-2-fluoro-3-methoxyphenyl)-pyrazin-2-amine]	2500 nM
COc1c(C2CCCC2)ccc(-c2cnc(N)cn2)c1F [Example 211, 5-(4-Cyclopentyl-2-fluoro-3-methoxyphenyl)pyrazin-2-amine]	527 nM
CC(C)(C)c1ccc(-c2cnc(N)cn2)cc1OCc1ccccc1 [Example 215, 5-[3-(Benzyloxy)-4-tert-butylphenyl]pyrazin-2-amine]	620 nM
Nc1cnc(-c2ccc(Cl)c(OCc3ccccc3)c2F)cn1 [Example 216, 5-[3-(Benzyloxy)-4-chloro-2-fluorophenyl]pyrazin-2-amine]	866 nM
Nc1cnc(-c2ccc(C3CCC3)c(OCc3ccccc3)c2)cn1 [Example 217, 5-[3-(Benzyloxy)-4-cyclobutylphenyl]pyrazin-2-amine]	1250 nM
COc1c(C2CCC2)ccc(-c2ccc(N)nn2)c1F [Example 219, 6-(4-cyclobutyl-2-fluoro-3-methoxyphenyl)pyridazin-3-amine]	> 10000 nM
Oc1c(C2CCC2)ccc(-c2cc3cc[nH]c3nn2)c1F [Example 221, 6-cyclobutyl-2-fluoro-3-(7H-pyrrolo[2,3-c]pyridazin-3-yl)phenol]	593 nM
Nc1ccc(-c2ccc(C3CCC3)c(O)c2F)nn1 [Example 223, 3-(6-aminopyridazin-3-yl)-6-cyclobutyl-2-fluorophenol]	> 10000 nM
Nc1ccc(-c2ccc(C3CCC3)c(Oc3ncccn3)c2F)nn1 [Example 231, 6-(4-cyclobutyl-2-fluoro-3-(pyrimidin-2-yloxy)phenyl)pyridazin-3-amine]	2140 nM
COc1cc(Oc2c(C3CCC3)ccc(-c3ccc(N)nn3)c2F)ncn1 [Example 232, 6-(4-cyclobutyl-2-fluoro-3-((6-methoxypyrimidin-4-yl)oxy)phenyl)pyridazin-3-amine]	1590 nM
Nc1ccc(-c2ccc(C3CCC3)c(Oc3cc(O)ncn3)c2F)nn1 [Example 233, 6-(3-(6-aminopyridazin-3-yl)-6-cyclobutyl-2-fluorophenoxy)pyrimidin-4-ol]	1680 nM
Nc1cnc(-c2ccc(C3CCC3)c(OCC3CCOCC3)c2F)cn1 [Example 264, 5-[4-Cyclobutyl-2-fluoro-3-(tetrahydro-2H-pyran-4-ylmethoxy)phenyl]pyrazin-2-amine]	> 10000 nM
CS(=O)(=O)c1cc(C#N)ccc1Oc1c(C2CCC2)ccc(-c2cnc(N)cn2)c1F [Example 265, 4-[3-(5-Aminopyrazin-2-yl)-6-cyclobutyl-2-fluorophenoxy]-3-(methylsulfonyl)benzonitrile]	> 10000 nM
Nc1cnc(-c2ccc(C3CCC3)c(Oc3ccc(C(F)(F)F)cc3C(F)(F)F)c2F)cn1 [Example 266, 5-{3-[2,4-Bis(trifluoromethyl)phenoxy]-4-cyclobutyl-2-fluorophenyl}pyrazin-2-amine]	> 10000 nM
CN(C)CCCOc1c(C2CCC2)ccc(-c2cnc(N)cn2)c1F [Example 267, 5-{4-Cyclobutyl-3-[3-(dimethylamino)propoxy]-2-fluorophenyl}pyrazin-2-amine]	> 10000 nM
CN(C)CCOc1c(C2CCC2)ccc(-c2cnc(N)cn2)c1F [Example 268, 5-{4-Cyclobutyl-3-[2-(dimethylamino)ethoxy]-2-fluorophenyl}pyrazin-2-amine]	> 10000 nM

SMILES	Ki
Nc1ccnc(Oc2c(C3CCC3)ccc(-c3cc4cc[nH]c4nn3)c2F)n1 [Example 270, 2-[6-Cyclobutyl-2-fluoro-3-(7H-pyrrolo[2,3-c]pyridazin-3-yl)phenoxy]pyrimidin-4-amine]	800 nM
N#Cc1nc(N)ncc1Oc1c(C2CCC2)ccc(-c2cnc(N)cn2)c1F [Example 273, 2-Amino-5-[3-(5-aminopyrazin-2-yl)-6-cyclobutyl-2-fluorophenoxy]pyrimidine-4-carbonitrile]	> 10000 nM
Cn1ccnc1COc1c(C2CCC2)ccc(-c2cnc(N)cn2)c1F [Example 280, 5-{4-Cyclobutyl-2-fluoro-3-[(1-methyl-1H-imidazol-2-yl)methoxy]phenyl}pyrazin-2-amine trifluoroacetic acid salt]	> 10000 nM
Nc1cnc(-c2ccc(C3CCC3)c(OCc3nc4ccccc4s3)c2F)cn1 [Example 283, 5-[3-(1,3-Benzothiazol-2-ylmethoxy)-4-cyclobutyl-2-fluorophenyl]pyrazin-2-amine trifluoroacetic acid salt]	97.6 nM
Cn1cnc(COc2c(C3CCC3)ccc(-c3cnc(N)cn3)c2F)c1 [Example 284, 5-{4-Cyclobutyl-2-fluoro-3-[(1-methyl-1H-imidazol-4-yl)methoxy]phenyl}pyrazin-2-amine trifluoroacetic acid salt]	> 10000 nM
Cn1cncc1COc1c(C2CCC2)ccc(-c2cnc(N)cn2)c1F [Example 285, 5-{4-Cyclobutyl-2-fluoro-3-[(1-methyl-1H-imidazol-5-yl)methoxy]phenyl}pyrazin-2-amine trifluoroacetic acid salt]	> 10000 nM
Nc1cnc(-c2ccc(C3CCC3)c(OCc3cccnn3)c2F)cn1 [Example 288, 5-[4-Cyclobutyl-2-fluoro-3-(pyridazin-3-ylmethoxy)phenyl]pyrazin-2-amine trifluoroacetic acid salt]	365 nM
NCCOc1c(C2CCC2)ccc(-c2cnc(N)cn2)c1F [Example 294, 5-[3-(2-aminoethoxy)-4-cyclobutyl-2-fluorophenyl]pyrazin-2-amine]	691 nM
Nc1cnc(-c2ccc(C3CCC3)c(OCC3CCNCC3)c2F)cn1 [Example 298, 5-[4-Cyclobutyl-2-fluoro-3-(piperidin-4-ylmethoxy)phenyl]pyrazin-2-amine hydrogen chloride salt]	> 10000 nM
Nc1cnc(-c2ccc(C3CCC3)c(OCC3CNC3)c2F)cn1 [Example 301, 5-[3-(Azetidin-3-ylmethoxy)-4-cyclobutyl-2-fluorophenyl]pyrazin-2-amine]	> 10000 nM
Cc1ccc(-c2cnc(N)cn2)c(F)c1Oc1ncccn1 [Example 314, 5-[2-Fluoro-4-methyl-3-(pyrimidin-2-yloxy)phenyl]pyrazin-2-amine]	> 10000 nM
Cc1ccc(-c2cnc(N)cn2)c(F)c1Oc1nccc(N)n1 [Example 315, 2-[3-(5-Aminopyrazin-2-yl)-2-fluoro-6 methylphenoxy]pyrimidin-4-amine]	1360 nM
CCc1ccc(-c2cnc(N)cn2)c(F)c1Oc1ncccn1 [Example 316, 5-[4-Ethyl-2-fluoro-3-(pyrimidin-2-yloxy)phenyl]pyrazin-2-amine]	289 nM
CC(C)CCc1ccc(-c2cnc(N)cn2)c(F)c1Oc1ncccn1 [Example 322, 5-(2-Fluoro-4-isopentyl-3-(pyrimidin-2 yloxy)phenyl)pyrazin-2-amine]	573 nM
Nc1cnc(-c2ccc(CC3CCCCC3)c(Oc3nccc(N)n3)c2F)cn1 [Example 326, 2-(3-(5-Aminopyrazin-2-yl)-6-(cyclohexylmethyl)-2-fluorophenoxy)pyrimidin-4-amine]	358 nM
CC(C)CCc1ccc(-c2cnc(N)cn2)c(F)c1Oc1nccc(N)n1 [Example 327, 2-(3-(5-Aminopyrazin-2-yl)-2-fluoro-6-isopentylphenoxy)pyrimidin-4-amine]	528 nM
